Measurements reported in patent USRE47193E1, “Selectively substituted quinoline compounds” (EISAI R&D MANAGEMENT CO., LTD., priority 2013, dated 2019).

Legend:
mouse TLR7 = molecular target: T1, mouse TLR7 (Mus musculus, UniProt P58681); assay: Short-term in vivo (STIV) assay: oral dosing, R848 s.c., plasma IL-6; set-up: female BALB/c mice (Jackson Labs, Bar Harbor, Me.) were dosed by oral gavage; tissue Jackson Labs; host or cells: living female BALB/c mice; plasma IL-6 after s.c. R848
T1 sequence (P58681 27-1050): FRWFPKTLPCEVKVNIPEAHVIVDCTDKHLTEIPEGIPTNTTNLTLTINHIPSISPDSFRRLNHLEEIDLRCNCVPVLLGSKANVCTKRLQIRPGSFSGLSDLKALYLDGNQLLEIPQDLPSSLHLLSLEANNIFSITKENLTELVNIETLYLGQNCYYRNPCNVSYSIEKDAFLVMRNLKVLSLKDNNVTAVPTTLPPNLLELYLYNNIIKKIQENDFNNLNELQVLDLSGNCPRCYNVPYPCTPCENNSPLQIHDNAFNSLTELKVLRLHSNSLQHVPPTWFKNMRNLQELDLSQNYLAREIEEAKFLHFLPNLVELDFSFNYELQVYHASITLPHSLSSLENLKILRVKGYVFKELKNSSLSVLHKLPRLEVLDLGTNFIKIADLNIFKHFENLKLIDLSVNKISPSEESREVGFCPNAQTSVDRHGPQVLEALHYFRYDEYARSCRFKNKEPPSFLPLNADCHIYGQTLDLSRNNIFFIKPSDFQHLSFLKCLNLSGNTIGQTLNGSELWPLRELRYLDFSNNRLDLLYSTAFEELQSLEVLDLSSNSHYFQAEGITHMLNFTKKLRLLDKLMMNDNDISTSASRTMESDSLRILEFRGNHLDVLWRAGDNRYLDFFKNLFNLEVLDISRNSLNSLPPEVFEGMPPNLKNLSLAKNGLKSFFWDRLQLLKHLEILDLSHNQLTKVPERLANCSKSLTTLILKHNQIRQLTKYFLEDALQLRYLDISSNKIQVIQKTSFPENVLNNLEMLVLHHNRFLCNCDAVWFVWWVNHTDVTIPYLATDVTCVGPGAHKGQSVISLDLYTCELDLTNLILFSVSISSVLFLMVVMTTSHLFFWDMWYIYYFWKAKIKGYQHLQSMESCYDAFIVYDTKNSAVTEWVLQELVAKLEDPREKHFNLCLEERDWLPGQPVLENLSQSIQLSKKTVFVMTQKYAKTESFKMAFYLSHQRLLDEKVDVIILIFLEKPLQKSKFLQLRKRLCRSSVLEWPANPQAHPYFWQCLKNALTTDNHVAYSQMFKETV
Procedure: Figure Legend: Female BALB/c mice were dosed by oral gavage with Vehicle alone (0.5% aqueous methyl-cellulose) or compound formulated in Vehicle at 33 mg/kg, 100 mg/kg or 300 mg/kg. […] (FIG. 1A).
Short-term in vivo (STIV) assay: To assess compound potency in vivo against mouse TLR7, a short-term in vivo (STIV) assay was utilized. Briefly, mice were orally dosed with compounds and at various time points afterwards were injected subcutaneously with agonist R848 to stimulate TLR7. The plasma IL-6 level following R848 stimulation was then measured by ELISA to assess compound potency and duration-of-action.
Short-term in vivo (STIV) assay. Six to eight week old female BALB/c mice (Jackson Labs, Bar Harbor, Me.) were dosed by oral gavage in 200 ul volume with antagonist compounds formulated in 0.5% aqueous methyl-cellulose (Sigma, St. Louis, Mo.). At various time points afterwards, mice were injected subcutaneously (s.c.) in 100 ul volume with 15 ug R848 (Resiquimod; GLSynthesis, Worcester, Mass.) to stimulate TLR7.

Human TLR7/8 = assay: Human PBMC cell-based assay, TLR7/8 stimulus (RNA-Ig), cytokine ELISA; conditions: primary human PBMC assay, TLR7/8 potency; ligand not given; read-out: Human PBMCs IC50
Procedure, shortened: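 The agonist was RNA-Ig, a U1 snRNA-derived 26-mer RNA (2.5 μM) complexed with RNA-cross-reacting anti-ssDNA mAb (1:25 or 1 ug/ml), added after 30 min compound pre-incubation (0.1% DMSO). Density-gradient PBMC from healthy donors, 2×10^5/well, were stimulated 20 h at 37 °C; cytokines quantified by ELISA.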

Compound | % Suppression vs. Vehicle (mouse TLR7; 13 h, 33 mg/kg) | % Suppression vs. Vehicle (mouse TLR7; 13 h, 100 mg/kg) | % Suppression vs. Vehicle (mouse TLR7; 24 h, 33 mg/kg) | % Suppression vs. Vehicle (mouse TLR7; 24 h, 100 mg/kg) | IC50 (Human TLR7/8) | % Suppression vs. Vehicle (mouse TLR7; 6 h, 100 mg/kg) | % Suppression vs. Vehicle (mouse TLR7; 6 h, 33 mg/kg) | % Suppression vs. Vehicle (mouse TLR7; 13 h, 300 mg/kg) | % Suppression vs. Vehicle (mouse TLR7; 24 h, 300 mg/kg) | also measured
CC1CN(c2ccc(C#N)c3ncccc23)CC(C(=O)NC2CCOCC2)O1 (centres unmarked) [ER-899122] | 90% | 100% | 15% | 89% | 80 nM |  |  |  |  | % Suppression vs. Vehicle (mouse TLR7; 6 h, 11 mg/kg): 98%; % Suppression vs. Vehicle (mouse TLR7; 13 h, 11 mg/kg): 37%; % Suppression vs. Vehicle (mouse TLR7; 24 h, 11 mg/kg): 0%
CC1CN(c2ccc(C#N)c3ncccc23)CC(C(=O)NC2C3CNCC32)O1 (centres unmarked) [ER-899418] |  | 10% |  |  | 5 nM | 19% |  |  |  | 
C[C@@H]1CN(c2ccc(C#N)c3ncccc23)C[C@H](C(=O)N(C)[C@@H]2CCCNC2)O1 [ER-899616] |  | 27% |  |  | 54 nM | 79% |  |  |  | 
C[C@@H]1CN(c2ccc(C#N)c3ncccc23)C[C@H](C(=O)NC2CCN(CC(N)=O)CC2)O1 [ER-899481] |  | 5% |  |  | 8 nM | 54% |  |  |  | 
CC1CN(c2ccc(C#N)c3ncccc23)CC(C(=O)NC2CCCNC2)O1 (centres unmarked) [ER-897968] | 3% | 35% | 0% | 8% | 1 nM |  | 81% | 85% | 80% | 
CC1CN(c2ccc(C#N)c3ncccc23)CC(C(=O)NC2CCNCC2)O1 (centres unmarked) [ER-898946] | 2% | 16% | 28% | 0% | 2 nM |  | 61% | 55% | 34% | 
C[C@@H]1CN(c2ccc(C#N)c3ncccc23)C[C@H](CN2CCN[C@@H](C)C2)O1 [ER-887270] | 37% | 81% | 25% | 26% | 1 nM |  | 98% | 99% | 100% | 
C[C@@H]1CN(c2ccc(C#N)c3ncccc23)C[C@H](C(=O)N[C@@H]2CNC[C@@H]2F)O1.Cl [ER-899745] |  | 5% |  |  | 4 nM | 100% |  |  |  | 
CC1CN(c2ccc(C#N)c3ncccc23)CC(C(=O)NCC2CCCN2)O1 (centres unmarked) [ER-897969] | 29% | 54% | 0% | 4% | 7 nM |  | 0% | 71% | 29% | 
CNCC1CN(C(=O)[C@H]2CN(c3ccc(C#N)c4ncccc34)C[C@@H](C)O2)C1 [ER-899018] |  | 12% |  |  | 9 nM | 73% |  |  |  | 
CC1CN(c2ccc(C#N)c3ncccc23)CC(CN2CCNC(C)C2C)O1 (centres unmarked) [ER-887137] |  |  |  |  | 2 nM | 100% | 99% |  |  | % Suppression vs. Vehicle (mouse TLR7; 3 h, 33 mg/kg): 100%; % Suppression vs. Vehicle (mouse TLR7; 3 h, 100 mg/kg): 100%; % Suppression vs. Vehicle (mouse TLR7; 3 h, 300 mg/kg): 100%; % Suppression vs. Vehicle (mouse TLR7; 6 h, 300 mg/kg): 100%; % Suppression vs. Vehicle (mouse TLR7; 19 h, 33 mg/kg): 38%; % Suppression vs. Vehicle (mouse TLR7; 19 h, 100 mg/kg): 63%; % Suppression vs. Vehicle (mouse TLR7; 19 h, 300 mg/kg): 100%
CC1CN(c2ccc(C#N)c3ncccc23)CC(C(=O)NCC2CNCCO2)O1 (centres unmarked) [ER-898694] | 2% | 36% | 0% | 0% | 2 nM |  | 93% | 53% | 35% | 
CCNC(=O)C1CN(c2ccc(C#N)c3ncccc23)CC(C)O1 (centres unmarked) [ER-894550] | 72% | 97% | 48% | 71% | 97 nM |  | 98% | 99% | 99% | 
CC(C)N1CCN(C[C@H]2CN(c3ccc(C#N)c4ncccc34)C[C@@H](C)O2)CC1 [ER-888322] |  |  |  |  | 18 nM | 100% | 99% |  |  | % Suppression vs. Vehicle (mouse TLR7; 6 h, 300 mg/kg): 100%; % Suppression vs. Vehicle (mouse TLR7; 19 h, 33 mg/kg): 24%; % Suppression vs. Vehicle (mouse TLR7; 19 h, 100 mg/kg): 82%; % Suppression vs. Vehicle (mouse TLR7; 19 h, 300 mg/kg): 100%
CC1CN(c2ccc(C#N)c3ncccc23)CC(C(=O)N2CCC3(CCNCC3)CC2)O1 (centres unmarked) [ER-899193] |  | 52% |  |  | 9 nM | 43% |  |  |  | 
Cc1cc(CO)cc(-c2ccc(C#N)c3ncccc23)c1 [ER-888201] |  |  |  |  | 4 nM | 50% | 35% |  |  | % Suppression vs. Vehicle (mouse TLR7; 6 h, 300 mg/kg): 40%; % Suppression vs. Vehicle (mouse TLR7; 19 h, 33 mg/kg): 45%; % Suppression vs. Vehicle (mouse TLR7; 19 h, 100 mg/kg): 71%; % Suppression vs. Vehicle (mouse TLR7; 19 h, 300 mg/kg): 79%
CC1CN(c2ccc(C#N)c3ncccc23)CC(C(=O)Nc2cnn(C3CCNCC3)c2)O1 (centres unmarked) [ER-899285] |  | 0% |  |  | 7 nM | 75% |  |  |  | 
CC1CN(c2ccc(C#N)c3ncccc23)CC(C(=O)NC2CNCCC2F)O1.Cl (mixture of isomers) [ER-899477] |  | 68% |  |  | 6 nM | 96% |  |  |  | 
C[C@@H]1CN(c2ccc(C#N)c3ncccc23)C[C@H](C(=O)N(C)[C@H]2CCCNC2)O1 [ER-899619] |  | 35% |  |  | 33 nM | 79% |  |  |  | 
